Values joined by “and” are separate entries in the source; they are usually repeats but may differ in a detail not shown here. Equal values may be shown once.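 96-well plates; 48 h exposure; 5 concentrations. Endpoints by linear interpolation between flanking doses. Not reached: highest tested concentration assigned. At the GI50, growth is halved. The concentration for full growth arrest is given as TGI.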
Experiments:
Experiment in all cases: growth of human tumour cells (NCI), 48 h
A549 NSCLC = system: A549 NSCLC
ACHN renal = system: ACHN renal
COLO 205 colon = system: COLO 205 colon
HOP-92 NSCLC = system: HOP-92 NSCLC
K-562 leukemia = system: K-562 leukemia
NCI-H522 lung = system: NCI-H522 lung
OVCAR-4 ovarian = system: OVCAR-4 ovarian
PC-3 prostate = system: PC-3 prostate
SF-295 CNS = system: SF-295 CNS
SK-MEL-5 melanoma = system: SK-MEL-5 melanoma

| Structure (SMILES) | TGI (A549 NSCLC) | TGI (ACHN renal) | TGI (COLO 205 colon) | TGI (HOP-92 NSCLC) | TGI (K-562 leukemia) | TGI (NCI-H522 lung) | TGI (OVCAR-4 ovarian) | TGI (PC-3 prostate) | TGI (SF-295 CNS) | TGI (SK-MEL-5 melanoma) | GI50 (A549 NSCLC) | GI50 (COLO 205 colon) | GI50 (K-562 leukemia) | GI50 (NCI-H522 lung) | GI50 (OVCAR-4 ovarian) | GI50 (PC-3 prostate) | GI50 (SF-295 CNS) | GI50 (SK-MEL-5 melanoma) |
| --- | --- | --- | --- | --- | --- | --- | --- | --- | --- | --- | --- | --- | --- | --- | --- | --- | --- | --- |
| Cc1cc(N(CCC#N)CCC#N)ccc1/C=C1\SC(=S)NC1=O | > 100 µM | > 100 µM | > 100 µM | > 100 µM | > 100 µM | > 100 µM | > 100 µM | > 100 µM | > 100 µM | > 100 µM |  |  |  |  |  |  |  |  |
| COP(=O)(O)C(N)Cc1c[nH]c2ccccc12 (stereo not drawn) | > 100 µM | > 100 µM | > 100 µM | > 100 µM | > 100 µM | > 100 µM | > 100 µM | > 100 µM | > 100 µM | > 100 µM |  |  |  |  |  |  |  |  |
| CC(=O)OC(C)(C)CCC(=O)[C@](C)(O)[C@H]1[C@H](O)C[C@@]2(C)[C@@H]3CC=C4C(C)=C(OC5OC(CO)C(O)C(O)C5O)C(=O)C[C@@H]4[C@]3(C)C(=O)C[C@]12C (stereo partly drawn) | > 100 µM | > 100 µM | > 100 µM | > 100 µM | > 100 µM | > 100 µM | > 100 µM | > 100 µM | > 100 µM | > 100 µM |  |  |  |  |  |  |  |  |
| COc1cc(OC2OC(COC(=O)c3cc(O)c(O)c(O)c3)C(O)C(O)C2O)ccc1O (stereo not drawn) | > 100 µM | > 100 µM | > 100 µM | > 100 µM | > 100 µM | > 100 µM | > 100 µM | 81.9 µM | > 100 µM | > 100 µM |  |  |  |  |  |  |  |  |
| CC(=O)N(C(C)=O)n1c(Cc2ccc(C)cc2)nn(C(C)=O)c1=O | > 100 µM | > 100 µM | > 100 µM | > 100 µM | > 100 µM | > 100 µM | > 100 µM | > 100 µM | > 100 µM | > 100 µM |  |  |  |  |  |  |  |  |
| CCCc1nnc2sc(COc3cc(Cl)c(OCc4nn5c(CCC)nnc5s4)cc3Cl)nn12 | > 100 µM | > 100 µM | > 100 µM | 70.7 µM | > 100 µM | > 100 µM | 80.5 µM | > 100 µM | > 100 µM | 32.1 µM |  |  |  |  |  |  |  |  |
| CCOC(=O)C(NC(=O)CC)(Nc1ccc(F)c(Cl)c1)C(F)(F)F (stereo not drawn) | > 100 µM | > 100 µM | > 100 µM | > 100 µM | > 100 µM | > 100 µM | > 100 µM | > 100 µM | > 100 µM | > 100 µM |  |  |  |  |  |  |  |  |
| CC(=O)NC1(C(=O)N[C@@H](Cc2ccccc2)C(=O)NC2CCCCC2)Cc2ccc3ccccc3c2-c2c(ccc3ccccc23)C1 | > 100 µM | > 100 µM | 4.44 µM and 15.9 µM | > 100 µM | > 100 µM | > 100 µM | > 100 µM | > 100 µM | > 100 µM | 12.1 µM and 23.7 µM | 2.53 µM and 5.95 µM | 2.2 µM and 5.01 µM | 2.7 µM and 7.67 µM | 4.56 µM and 10.4 µM | 1.17 µM and 6.26 µM | 2.87 µM and 6.4 µM | 2.55 µM and 0.662 µM | 2.9 µM and 6.71 µM |
| CCCC(=O)NC(Nc1ccc(F)cc1)(C(F)(F)F)C(F)(F)F | > 100 µM | > 100 µM | > 92.8 µM | > 100 µM | > 100 µM | > 100 µM | > 74.2 µM | > 100 µM | > 100 µM | > 100 µM |  |  |  |  |  |  |  |  |
| COc1ccc([C@]23CCN4COC[C@@H]([C@H]42)C2(CC3)OCC(C)(C)CO2)cc1OC | > 100 µM | > 100 µM | > 100 µM | > 100 µM | > 100 µM | > 100 µM | > 100 µM | > 100 µM | > 100 µM | > 100 µM |  |  |  |  |  |  |  |  |
| COC1(c2cccs2)c2ccccc2C(OC)(c2cccs2)c2ccccc21 (stereo not drawn) | > 100 µM | > 100 µM | > 100 µM | > 100 µM | > 100 µM | > 100 µM | > 100 µM | > 100 µM | > 100 µM | > 100 µM |  |  |  |  |  |  |  |  |
| CN[C@@H](C)[C@@H](O)c1ccccc1 | > 100 µM | > 100 µM | > 100 µM | > 100 µM | > 100 µM | > 10 µM | > 100 µM | > 100 µM | > 100 µM | > 100 µM |  |  |  |  |  |  |  |  |
| N=c1oc2ccccc2cc1-c1nc2ccccc2c(=O)[nH]1 | > 100 µM | > 100 µM | > 100 µM | 66.1 µM | > 100 µM | > 100 µM | > 100 µM | > 100 µM | > 100 µM | > 100 µM |  |  |  |  |  |  |  |  |
